The values below come from publication PMC12647759 (Scientific Reports, 2025).

One test deals with PLC. To be noted: cited from earlier work.
For test [1], the system named is intestinal tumours of Apc^Min/+ mice. Nature of the test: Intestinal tumourigenesis of Apc^Min/+ mice. To be noted: i.p. 3 days per week for 11 weeks, ZPT 2.5 or 5 mg/kg, dipyrithione 5 mg/kg. It counts as in vivo. The procedure: Five weeks-old Apc^Min/+ mice were administered intraperitoneally with ZPT, dipyrithione or the vehicle 3 days per week for 11 weeks. Thereafter, the mice were sacrificed and the whole small intestines were excised, rolled up in a ‘Swiss roll’ configuration, embedded in OCT compound and longitudinally sectioned at the 10-µm thickness. One section in the middle position of each intestine was subjected to H&E staining after fixation with 4% PFA, and tumours in the whole section were classified under microscope into hyperplasias, low-grade adenomas, high-grade adenomas and adenocarcinomas according to the histopathological criteria recommended for the study of mouse models of intestinal cancer. The classification was conducted by a pathologist at Pathology Analysis Center (Kanagawa, Japan) under the blind condition regarding the compound administration.

The next test deals with SW620 cells. The test is described as follows: Experimental lung metastasis of SW620 cells in nude mice. It is filed as in vivo. Conditions: i.p. twice, one week before and after cell injection, ZPT 2.5 or 5 mg/kg, dipyrithione 5 mg/kg. On the procedure:
Female nude mice (6–8 weeks old) were injected with SW620 cells (1 × 10^7 cells) suspended in 200 µl L-15 medium via tail vein and maintained for further 8 weeks. ZPT, dipyrithione or the vehicle was administered intraperitoneally to the mice twice, 1 week before and after the cell injection. Thereafter, the mice were sacrificed, and their lungs were excised, fixed in 4% PFA, embedded in paraffin and serially sectioned. The Sect. (10-µm thick) were subjected to H&E staining. For histologic evaluation of lung micro-metastasis, the number of micro-metastatic nodules in 3 non-contiguous lung sections from each mouse was counted under a light microscope as described previously.

For test [2], the system named is DSS-induced inflammatory colitis. Nature of the test: DSS-induced inflammatory colitis. It counts as in vivo, mice. Conditions: 2.5% DSS 7 days; i.p. once a day, ZPT 2.5, 5 or 10 mg/kg, dipyrithione 10 mg/kg. On the procedure:
To induce inflammatory colitis, 10 weeks-old C57BL/6JJc1 mice were allowed to take drinking water containing 2.5% (w/v) DSS (molecular weight 36,000 ~ 50,000; Wako Pure Chemical, Osaka, Japan) ad libitum for 7 days[9],[30]. During this period, they were administered intraperitoneally with ZPT, dipyrithione or a vehicle (0.5% carboxymethyl cellulose and 0.9% NaCl) once a day. Thereafter, their colons were excised, washed with PBS, dissected longitudinally, fixed in 4% paraformaldehyde (PFA), embedded in paraffin and serially sectioned as described. The Sect. (10-µm thick) were subjected to H&E staining. Images were taken with an Olympus FSX100 microscope and Olympus FSX100-BSW software. The severity of inflammatory colitis was also assessed by measuring the body weight loss and the colon length shortening.

The subject of test [3] is Caco2 cells. The test is described as follows: Tumour xenograft of Caco2 cells in nude mice. It is filed as in vivo. Conditions: i.p. 3 days per week for 8 weeks, ZPT 2.5, 5 or 10 mg/kg, dipyrithione 5 mg/kg. On the procedure:
(§1) Tumour xenograft experiments were performed as previously described. Briefly, SW480 or Caco2 cells (5 × 10^6 cells each) were implanted subcutaneously into the right flanks of female athymic nude (nu/nu) mice (6–8 weeks old, CLEA Japan). One week later, the mice were administered intraperitoneally with ZPT, dipyrithione or the vehicle 3 days per week for 3 or 8 weeks, respectively, during which the volumes (V) of the tumours, calculated by the following formula: V = A × B^2/2 (A: the largest diameter, B: the perpendicular diameter), and the body weight were monitored every 7 days. Thereafter, tumours of the SW480-grafted mice were dissected, weighed, fixed in 4% paraformaldehyde, embedded in paraffin and serially sectioned. The Sect. (10-µm thick) were subjected to immunohistochemical detection of phosphorylated PKD by using anti-phospho-PKD antibody and HISTMOUSE-PLUS Kit (ZYMED Lab., Carlsbad, CA) according to the manufacturer’s protocol.

A further test has as its system SW480 cells. The test is described as follows: Tumour xenograft of SW480 cells in nude mice. It counts as in vivo. Conditions: i.p. 3 days per week for 3 weeks, ZPT 2.5, 5 or 10 mg/kg, dipyrithione 5 mg/kg. The procedure:
as §1

The next test has as its target T1, human PLCε (Homo sapiens, UniProt Q9P212).
T1 construct: expressing the full-length polypeptides of human PLCε, PLCβ4, PLCδ1 and PLCγ1 as FLAG fusions; made in house; host or cells: Expi293F cells
The test is described as follows: In vitro PLC assay using fluorogenic substrate Compound 1 (HTS), PLCε. It counts as biochemical. Conditions: Compound 1 as substrate, varying concentrations. On the procedure:
For measuring inhibition by compounds for HTS, the reactions were conducted at RIKEN Center for Sustainable Resource Science (CSRS) as described above except that 5 µl of compound solution and 5 µl of purified PLCe (120 ng) were added to each well. […] For determination of the IC50 values for ZPT and Zn^2+, the EDTA concentration was reduced to one-tenth to avoid its zinc-chelating effect. For assay of the other PLC classes, the reactions were performed similarly except that PLCβ4 (5 ng), PLCδ1 (0.1 ng) or PLCγ1 (0.3 ng) was used instead of PLCε.

Test [4] has as its system Caco2 cells. Nature of the test: Determination of intracellular zinc concentration with Zinquin ethyl ester. Conditions: 5 µM sodium pyrithione added to 5 µM ZnSO4, 30 min. It is filed as cell-based, human.
Procedure: Confluent Caco2 cells in a Φ10-cm culture dish were subjected to serum starvation overnight and incubated with 10 µM MG132 for 30 min. […] The cells were harvested by trypsinization, washed with PBS and suspended at the density of 5 × 10^6 cells/ml in Hanks’ balanced salt solution (HBSS). After the addition of 1 mg/ml Zinquin ethyl ester (Dojindo Laboratories, Kumamoto, Japan)[27] dissolved in DMSO at the final concentration of 25 µM, the cell suspension was incubated at 37 °C for 30 min. Subsequently, the cells were washed three times with HBSS, suspended in HBSS at the density of 5 × 10^6 cells/ml and subjected to measurement of the fluorescence emission at 490 nm with the excitation at 370 nm by POLARstar Omega-25.

T1 sequence (Q9P212 whole entry, the tested form may be a part): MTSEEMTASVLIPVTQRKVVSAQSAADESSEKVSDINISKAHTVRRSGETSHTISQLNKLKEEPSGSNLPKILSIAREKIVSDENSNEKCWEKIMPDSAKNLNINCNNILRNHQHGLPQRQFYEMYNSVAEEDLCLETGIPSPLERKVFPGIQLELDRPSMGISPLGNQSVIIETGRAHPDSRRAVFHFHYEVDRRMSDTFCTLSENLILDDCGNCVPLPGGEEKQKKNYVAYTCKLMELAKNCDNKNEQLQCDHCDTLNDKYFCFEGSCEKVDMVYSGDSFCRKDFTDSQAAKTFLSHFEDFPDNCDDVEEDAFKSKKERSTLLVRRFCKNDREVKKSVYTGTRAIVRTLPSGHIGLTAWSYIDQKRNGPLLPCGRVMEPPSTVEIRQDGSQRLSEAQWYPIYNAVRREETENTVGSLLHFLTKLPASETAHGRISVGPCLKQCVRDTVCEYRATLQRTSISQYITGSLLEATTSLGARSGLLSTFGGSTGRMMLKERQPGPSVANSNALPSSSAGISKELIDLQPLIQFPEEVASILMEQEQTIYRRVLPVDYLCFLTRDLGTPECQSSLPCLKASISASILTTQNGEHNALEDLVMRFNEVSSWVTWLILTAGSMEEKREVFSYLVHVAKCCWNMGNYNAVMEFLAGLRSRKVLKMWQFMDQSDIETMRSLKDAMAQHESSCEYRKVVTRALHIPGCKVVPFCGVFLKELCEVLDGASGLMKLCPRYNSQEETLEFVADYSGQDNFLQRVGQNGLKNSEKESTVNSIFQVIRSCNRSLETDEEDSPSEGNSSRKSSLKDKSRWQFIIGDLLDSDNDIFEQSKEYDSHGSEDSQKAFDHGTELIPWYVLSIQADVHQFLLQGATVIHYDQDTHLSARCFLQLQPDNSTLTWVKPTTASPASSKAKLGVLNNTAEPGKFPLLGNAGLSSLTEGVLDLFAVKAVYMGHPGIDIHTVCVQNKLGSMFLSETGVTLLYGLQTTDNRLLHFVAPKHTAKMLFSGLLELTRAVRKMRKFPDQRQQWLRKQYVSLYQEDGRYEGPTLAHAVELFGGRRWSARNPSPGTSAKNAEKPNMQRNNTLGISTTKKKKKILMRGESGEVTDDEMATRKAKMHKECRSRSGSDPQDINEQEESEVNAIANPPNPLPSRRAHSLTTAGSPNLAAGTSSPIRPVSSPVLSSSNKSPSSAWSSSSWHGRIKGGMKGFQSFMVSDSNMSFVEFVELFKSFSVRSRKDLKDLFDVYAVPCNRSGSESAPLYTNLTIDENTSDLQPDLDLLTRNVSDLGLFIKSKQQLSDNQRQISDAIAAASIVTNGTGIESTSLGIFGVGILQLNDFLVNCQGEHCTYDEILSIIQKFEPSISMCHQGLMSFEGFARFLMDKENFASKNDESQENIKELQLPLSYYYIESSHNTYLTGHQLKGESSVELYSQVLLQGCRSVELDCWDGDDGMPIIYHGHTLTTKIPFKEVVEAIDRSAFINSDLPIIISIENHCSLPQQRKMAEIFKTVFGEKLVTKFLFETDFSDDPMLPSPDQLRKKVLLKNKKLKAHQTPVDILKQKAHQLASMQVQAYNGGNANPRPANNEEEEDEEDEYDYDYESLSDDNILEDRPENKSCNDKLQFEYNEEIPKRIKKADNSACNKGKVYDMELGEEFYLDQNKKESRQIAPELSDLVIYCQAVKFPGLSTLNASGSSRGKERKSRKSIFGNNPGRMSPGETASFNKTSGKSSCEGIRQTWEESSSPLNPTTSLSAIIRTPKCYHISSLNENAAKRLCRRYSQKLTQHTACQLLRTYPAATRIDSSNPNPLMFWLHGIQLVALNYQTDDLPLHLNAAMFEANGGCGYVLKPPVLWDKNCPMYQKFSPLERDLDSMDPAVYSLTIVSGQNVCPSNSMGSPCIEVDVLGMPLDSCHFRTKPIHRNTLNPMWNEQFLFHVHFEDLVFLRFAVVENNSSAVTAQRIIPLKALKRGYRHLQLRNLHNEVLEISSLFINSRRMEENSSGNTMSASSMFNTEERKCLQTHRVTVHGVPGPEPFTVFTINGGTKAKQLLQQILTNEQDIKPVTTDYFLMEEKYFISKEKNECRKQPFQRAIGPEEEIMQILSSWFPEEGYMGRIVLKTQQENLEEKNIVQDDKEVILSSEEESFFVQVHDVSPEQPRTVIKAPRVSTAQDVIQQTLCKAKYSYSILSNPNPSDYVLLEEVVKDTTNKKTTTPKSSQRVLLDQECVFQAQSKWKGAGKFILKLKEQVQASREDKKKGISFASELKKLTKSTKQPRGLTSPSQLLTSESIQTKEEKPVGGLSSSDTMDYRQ

On to `COc1ccc2c(c1)CC[C@@H]1[C@@H]2CC[C@]2(C)[C@@H](NCCCCCCN3C(=O)C=CC3=O)CC[C@@H]12` [U73122], for which the “inhibition of PLC catalytic activity in vitro” value in the test on PLC is “failed to inhibit PLC catalytic activity in vitro”.
In the case of `[O-][n+]1ccccc1SSc1cccc[n+]1[O-]` [dipyrithione], the “ratio of high-grade adenomas / progression of low-grade to high-grade adenomas” value in test [1] is given as “appeared to accelerate the progression of low-grade adenomas to high-grade adenomas”. Besides, in the test with SW620 cells, the “numbers of micro-metastatic nodules in lung sections” value is recorded as “exhibited no effect”. Also, in test [2], the body weight loss result is recorded as “failed to alleviate”; the colon length shortening entry is on record as “failed to alleviate”; the “histology: erosion of the mucosa, swelling of the submucosa and leukocyte infiltration” value is “failed to alleviate”. In addition, the “growth of grafted cells (tumour volume)” value with Caco2 cells [3] is “not”. The “growth of grafted cells (tumour volume)” value in the test with SW480 cells was “not”. In addition, on human PLCε, the “inhibition of PLCε” value is on record as “failed to inhibit PLCε”.
For the molecule `On1ccccc1=S` [sodium pyrithione], in the test with Caco2 cells [4], the “increase in intracellular Zn^2+ concentration” value is recorded as 8.78 fold. Further, the “inhibition of PLCε” value at human PLCε is given as “failed to inhibit PLCε”.
